Measured values: patent publication US4119724A, “Fungicidal compositions containing phosphorous acid and derivatives thereof” (Pepro, priority 1973, dated 1978)

Tests used:
Plasmopara viticola [1] = assay: In vivo test on vine plants, preventive treatment; settings: 0.5 g/l, leaves sprayed 48 hours before contamination, inspected 9 days after infestation
Plasmopara viticola [2] = assay: In vivo test on vine plants, treatment after contamination; settings: 1 g/l, inspected 9 days after contamination
Plasmopara viticola [3] = assay: Systemic test by root absorption on vine mildew; assay type: in vivo; settings: 0.5 g/l, absorbed by the roots, assessed after about 9 days
Plasmopara viticola [4] = assay: Open-air test on vine stocks; assay type: in vivo; settings: 2 g/l
Procedure: Groups of vine stocks (Gamay variety) are treated on the 27th June, 4th, 11th and 18th July, 1st and 7th August, with a spray of wettable powder containing 50% of an active material, namely compound 13 and manganese ethylene-1,2-bis-dithiocarbamate or manebe.
It should be noted that, in August and September, the mildew Plasmopara viticola was extremely virulent on account of heavy rainfall. For a uniform dose of 2 g/l, the results are expressed as percentage protection in relation to a contaminated but untreated control.

Solubility in water = assay type: physicochemical
Phytophtora parasitica = assay: Pineapple test; assay type: in vivo; settings: 0.5 g/l spray 48 hours after contamination, after 30 days
Procedure: Pineapple seedlings are contaminated with Phytophtora parasitica and then treated after 48 hours by spraying with a solution containing 0.5 g/l of calcium phosphite.

Pythium de Baryanum = assay: In vitro test on mycelian growth (Agar Plate dilution), Pythium; assay type: cell-based; settings: 0.25 g/l, 4 days at 20° C
Procedure: (§1) In vitro Test on Mycelian Growth
(§2) The compounds according to the invention are studied for their effect on the mycelian growth of the following fungi:
(§3) The "Agar Plate dilution" method is used for each test. A mixture of gelose and an acetone solution or a wettable powder containing the material to be tested in a concentration of 0.25 g/l is poured into a Petri dish at a temperature of approximately 50° C.
(§4) The gelose-containing mixture is then allowed to solidify, after which mycelian culture discs of the fungus are placed on it.
(§5) After 4 days at 20° C., the surface area of the inhibition zone observed is evaluated and expressed as a percentage of the inoculated surface area.

Rhizoctonia solani = assay: In vitro test on mycelian growth (Agar Plate dilution), Rhizoctonia; assay type: cell-based; settings: 0.25 g/l, 4 days at 20° C
Procedure: as §1, §2
Rhizoctonia solani, responsible for neck canker
as §3, §4, §5

Botrytis cinerea = assay: In vitro test on mycelian growth (Agar Plate dilution), Botrytis; assay type: cell-based; settings: 0.25 g/l, 4 days at 20° C
Procedure: as §1, §2
Botrytis cinerea, responsible for grey rot
as §3, §4, §5

Piricularia oryzae = assay type: cell-based; settings: 0.25 g/l, 4 days at 20° C
Phytophtora cinnamomi = assay: Avocado test; assay type: in vivo; settings: soil sprayed with 3 g/l solution, after 20 days
Description: Avocado seedlings (variety Persea indica) are planted in a soil infested with Phytophtora cinnamomi, after which the soil is sprayed with a solution containing 3 g/l of ammonium phosphite. Some seedlings are left untreated as controls. Under these conditions, it is found after 20 days that the roots of the controls are completely dead, whilst 90% of the treated seedlings are healthy.

[5] = inspection date 2/10 (approx. 2 months after last treatment)
[6] = inspection date 3/9 (approx. 1 month after last treatment)
[7] = inspection date 20/10 (approx. 2.5 months after last treatment)

Molecule | protection (preventive treatment) (Plasmopara viticola [1]) | stop of the development of mildew (treatment after contamination) (Plasmopara viticola [2]) | protection by root absorption (systemic) (Plasmopara viticola [3]) | other results
O=[PH]([O-])[O-].[Zn+2] [Compound 17, neutral zinc(II)phosphite] | total protection | completely stop the development of mildew | total protection | –
cuprous phosphite [Compound 20] | total protection | – | – | –
neutral copper(II)phosphite [Compound 13] | total protection | – | good protection | percentage protection in relation to contaminated untreated control (Plasmopara viticola [4]; [5]): 66%; percentage protection in relation to contaminated untreated control (Plasmopara viticola [4]; [6]): 94%; percentage protection in relation to contaminated untreated control (Plasmopara viticola [4]; [7]): 50%
Nc1ccccc1 [Compound 22] | good protection | completely stop the development of mildew | total protection | solubility in water (Solubility in water): insoluble
NC1CCCCC1 [Compound 23] | – | – | good protection | solubility in water (Solubility in water): insoluble
O=[PH]([O-])[O-].O=[PH]([O-])[O-].O=[PH]([O-])[O-].[Al+3].[Al+3] [Compound 19, neutral aluminium phosphite] | total protection | – | total protection | –
calcium phosphite | – | – | – | inhibition of the fungus in treated seedlings (Phytophtora parasitica): completely inhibited
C1COCCN1 [Compound 25] | good protection | completely stop the development of mildew | total protection | solubility in water (Solubility in water): insoluble
S=C([S-])NCCNC(=S)[S-].[Mn+2] [Manebe, manganese ethylene-1,2-bis-dithiocarbamate, reference compound] | – | – | – | percentage protection in relation to contaminated untreated control (Plasmopara viticola [4]; [5]): 62%; percentage protection in relation to contaminated untreated control (Plasmopara viticola [4]; [6]): 96%; percentage protection in relation to contaminated untreated control (Plasmopara viticola [4]; [7]): 15%
NCCO.O=[PH](O)O [Compound 8, acid monoethanolamine phosphite] | – | – | – | inhibition of mycelian growth (inhibition zone as percentage of the inoculated surface area) (Pythium de Baryanum): 51%; inhibition of mycelian growth (inhibition zone as percentage of the inoculated surface area) (Rhizoctonia solani): 60%
CC(C)c1cccc(N)c1 [Compound 27] | good protection | – | – | solubility in water (Solubility in water): insoluble
neutral nickel (II)phosphite [Compound 14] | total protection | completely stop the development of mildew | – | inhibition of mycelian growth (inhibition zone as percentage of the inoculated surface area) (Rhizoctonia solani): 78%; inhibition of mycelian growth (inhibition zone as percentage of the inoculated surface area) (Botrytis cinerea): 48%; inhibition of mycelian growth (inhibition zone as percentage of the inoculated surface area) (Piricularia oryzae): 59%
O=[PH](O)O.c1c[nH]cn1 [Compound 21, acid phosphite of 1,3-imidazole] | good protection | completely stop the development of mildew | total protection | –
trivalent iron phosphite [Compound 15] | good protection | – | – | –
O=[PH]([O-])[O-].[Ba+2] [Compound 12, neutral barium phosphite] | total protection | – | total protection | –
N.N.O.O=[P+](O)O [ammonium phosphite] | – | – | – | treated seedlings healthy (Phytophtora cinnamomi): 90%
manganous phosphite [Compound 16] | total protection | completely stop the development of mildew | – | –
O=[PH]([O-])[O-].[Ca+2] [Compound 10, neutral calcium phosphite] | total protection | – | good protection | –
O=[PH]([O-])[O-].[Mg+2] [Compound 18, neutral magnesium phosphite] | good protection | – | – | –
CC(C)c1ccc(N)cc1 [Compound 26] | good protection | completely stop the development of mildew | – | solubility in water (Solubility in water): insoluble
